Read-outs that look alike come from different tables or passages of the source.
Assay: Effect of food on plasma pharmacokinetics after single oral dose of SF2a/b (Example 2)
Format: in vivo, human
Settings: both sexes, human, plasma, oral; for Tmax: read-out: tmax, Median
Description: The effect of food on the pharmacokinetics (PK) of Compound (a) was assessed in healthy participants after a single oral dose of SF2a/b, described in Example 1, administered at different dose levels in a randomized single dose, 2-period crossover study. The effect of food on the PK of Compound (a) was determined at 3 different dose levels (50 mg, 200 mg, and 800 mg) for a standardized breakfast; at one dose level (800 mg) for a high-fat, high-calorie breakfast; at two dose levels (200 mg and 800 mg) for a low-fat, low-calorie breakfast, as well as for a low-fat, high-calorie breakfast. 124 healthy adult participants (male and female, 18 to 55 years of age) were enrolled in this study. The volunteers were divided in six panels, which were organized as follows: • Panel […]: • Treatment D: A single 800-mg dose (4×200-mg tablets) of Compound (a) SF2b in fasted conditions. • Treatment E: A single 800-mg dose (4×200-mg tablets) of Compound (a) SF2b in fed conditions (standardized breakfast). • Treatments D and E (treatment sequence group 1 [n=8]: DE; treatment sequence group 2 [n=8]: ED). Panel 4, n=14: • Treatment F: A single 200-mg dose (1×200-mg tablet) of Compound (a) SF2b in fasted conditions. • Treatment G: A single 200-mg dose (1×200-mg tablet) of Compound (a) SF2b, in fed conditions (standardized breakfast). • Treatments F and G (treatment sequence group 1 [n=7]: FG; treatment sequence group 2 [n=7]: GF). Panel […]: • Treatment H: A single 50-mg dose (1×50-mg tablet) of Compound (a) SF2a in fasted conditions. • Treatment I: A single 50-mg dose (1×50-mg tablet) of Compound (a) SF2a in fed conditions (standardized breakfast). • Treatments H and I (treatment sequence group 1 [n=7]: HI; treatment sequence group 2 [n=7]: IH). Panel 6 (n=16): • Treatment J: single 800-mg dose (4×200-mg tablets) of Compound (a) administered as SF2b in fasted conditions. • Treatment K: single 800-mg dose (4×200-mg tablets) of Compound (a) administered as SF2b in fed conditions (high-fat, high-calorie breakfast). • Treatments J and K (treatment sequence group 1 [n=8]: JK; treatment sequence group 2 [n=8]: KJ). Panel 7 (n=32): • Treatment L: single 800-mg dose (4×200-mg tablets) of Compound (a) administered as SF2b in fed conditions (low-fat, low-calorie breakfast). • Treatment M: single 800-mg dose (4×200-mg tablets) of Compound (a) administered as SF2b in fed conditions (low-fat, high-calorie breakfast). • Treatment L (n=16) or Treatment M (n=16). Panel 8 (n=32): • Treatment N: single 200-mg dose (1×200-mg tablet) of Compound (a) administered as SF2b in fed conditions (low-fat, low-calorie breakfast). • Treatment O: single 200-mg dose (1×200-mg tablet) of Compound (a) administered as SF2b in fed conditions (low-fat, high-calorie breakfast). • Treatment N (n=16) or Treatment O (n=16). Tablets were administered orally, together with approximately 240 mL of non-carbonated water, in fasted or fed conditions. […] On day 1 of all treatments in each panel, the participants had fasted overnight for at least 10 hours before study drug intake. Intake of water was not allowed from 2 hours before and until 2 hours after study drug intake, except for the water used for study drug intake and breakfast. In case of intake in fed conditions, study drug was administered within 10 minutes after completing a standardized breakfast (Treatments E, G, and I), or a high-fat, high-calorie breakfast (Treatment K), a low-fat, low-calorie breakfast (Treatments L and N), or a low-fat, high-calorie breakfast (Treatments M and O). For treatments E, G, and I a standardized breakfast was served, consisting of (or its equivalent) 4 slices of bread, 2 slices of ham or cheese, butter, jelly, and 1 or 2 cups (up to 355 mL) of decaffeinated coffee or tea with milk and/or sugar, if desired (containing approximately: fat: 21 g, carbohydrates: 67 g, proteins: 19 g; total calories: 533 kcal). For treatment K in a high-fat, high-calorie breakfast was served. […]

Work on `COc1cc(NC(C(=O)c2c[nH]c3ccc(OC(F)(F)F)cc23)c2ccc(Cl)cc2OC)cc(S(C)(=O)=O)c1` (stereo not drawn) [Compound (a)] yielded an AUC(0-inf) (200 mg, 200 mg SF2b, fed, standardized breakfast (Tables 5E, 5G), read-out: AUC∞, Geometric LS Means Treatment G) of 103 µg·h/mL, a Cmax (200 mg, 200 mg SF2b, fed, standardized breakfast (Tables 5E, 5G), read-out: Cmax, Geometric LS Means Treatment G) of 961 ng/mL and an AUC(0-t) (200 mg, 200 mg SF2b, standardized breakfast, linear mixed effects model (Table 5B), read-out: AUClast, Geometric Mean Treatment G) of 102 µg·h/mL. For the same compound, the AUC(0-inf) (200 mg, 200 mg SF2b, standardized breakfast, linear mixed effects model (Table 5B), read-out: AUC∞, Geometric Mean Treatment G) was 104 µg·h/mL, the Cmax (200 mg, 200 mg SF2b, standardized breakfast, linear mixed effects model (Table 5B), read-out: Cmax, Geometric Mean Treatment G) was 984 ng/mL and the AUC(0-t) (200 mg, Treatment F: single 200 mg (SF2b), fasted, read-out: AUClast, Geo. Mean) was 61.1 µg·h/mL. It also gave an AUC(0-t) (200 mg, Treatment F: single 200 mg (SF2b), fasted, read-out: AUClast, Mean) of 64.8 µg·h/mL, an AUC(0-t) (200 mg, Treatment F: single 200 mg (SF2b), fasted, read-out: AUClast, Median) of 59 µg·h/mL and an AUC(0-inf) (200 mg, Treatment F: single 200 mg (SF2b), fasted, read-out: AUC∞, Geo. Mean) of 59.6 µg·h/mL. It also gave an AUC(0-inf) (200 mg, Treatment F: single 200 mg (SF2b), fasted, read-out: AUC∞, Mean) of 62 µg·h/mL, an AUC(0-inf) (200 mg, Treatment F: single 200 mg (SF2b), fasted, read-out: AUC∞, Median) of 58.5 µg·h/mL and a Cmax (200 mg, Treatment F: single 200 mg (SF2b), fasted, read-out: Cmax, Geo. Mean) of 573 ng/mL. The Cmax (200 mg, Treatment F: single 200 mg (SF2b), fasted, read-out: Cmax, Mean) was 602 ng/mL, the Cmax (200 mg, Treatment F: single 200 mg (SF2b), fasted, read-out: Cmax, Median) was 580 ng/mL and the half-life (200 mg, Treatment F: single 200 mg (SF2b), fasted, read-out: t1/2, term, Geo. Mean (converted)) was 188 h. The half-life (200 mg, Treatment F: single 200 mg (SF2b), fasted, read-out: t1/2, term, Mean (converted)) was 205 h, the half-life (200 mg, Treatment F: single 200 mg (SF2b), fasted, read-out: t1/2, term, Median (converted)) was 174 h and the Tmax (200 mg, Treatment F: single 200 mg (SF2b), fasted) was 7.5 h. For the same compound, the AUC(0-t) (200 mg, Treatment G: single 200 mg (SF2b), fed, standardized breakfast, read-out: AUClast, Geo. Mean) was 97.2 µg·h/mL, the AUC(0-t) (200 mg, Treatment G: single 200 mg (SF2b), fed, standardized breakfast, read-out: AUClast, Mean) was 100 µg·h/mL and the AUC(0-t) (200 mg, Treatment G: single 200 mg (SF2b), fed, standardized breakfast, read-out: AUClast, Median) was 89.5 µg·h/mL. For the same compound, the AUC(0-inf) (200 mg, Treatment G: single 200 mg (SF2b), fed, standardized breakfast, read-out: AUC∞, Geo. Mean) was 102 µg·h/mL, the AUC(0-inf) (200 mg, Treatment G: single 200 mg (SF2b), fed, standardized breakfast, read-out: AUC∞, Mean) was 106 µg·h/mL and the AUC(0-inf) (200 mg, Treatment G: single 200 mg (SF2b), fed, standardized breakfast, read-out: AUC∞, Median) was 95.3 µg·h/mL. It also gave a Cmax (200 mg, Treatment G: single 200 mg (SF2b), fed, standardized breakfast, read-out: Cmax, Geo. Mean) of 961 ng/mL, a Cmax (200 mg, Treatment G: single 200 mg (SF2b), fed, standardized breakfast, read-out: Cmax, Mean) of 996 ng/mL and a Cmax (200 mg, Treatment G: single 200 mg (SF2b), fed, standardized breakfast, read-out: Cmax, Median) of 892 ng/mL. The half-life (200 mg, Treatment G: single 200 mg (SF2b), fed, standardized breakfast, read-out: t1/2, term, Geo. Mean (converted)) was 193 h, the half-life (200 mg, Treatment G: single 200 mg (SF2b), fed, standardized breakfast, read-out: t1/2, term, Mean (converted)) was 198 h and the half-life (200 mg, Treatment G: single 200 mg (SF2b), fed, standardized breakfast, read-out: t1/2, term, Median (converted)) was 208 h. For the same compound, the Tmax (200 mg, Treatment G: single 200 mg (SF2b), fed, standardized breakfast) was 8 h, the AUC(0-t) (800 mg, 800 mg SF2b, fasted, linear mixed effects model (Table 5A), read-out: AUClast, Geometric Mean Treatment D) was 140 µg·h/mL and the AUC(0-inf) (800 mg, 800 mg SF2b, fasted, linear mixed effects model (Table 5A), read-out: AUC∞, Geometric Mean Treatment D) was 148 µg·h/mL. The Cmax (800 mg, 800 mg SF2b, fasted, linear mixed effects model (Table 5A), read-out: Cmax, Geometric Mean Treatment D) was 1220 ng/mL, the AUC(0-t) (800 mg, 800 mg SF2b, fasted, read-out: AUClast, Geometric LS Means Treatment J) was 107 µg·h/mL and the AUC(0-inf) (800 mg, 800 mg SF2b, fasted, read-out: AUC∞, Geometric LS Means Treatment J) was 110 µg·h/mL. The Cmax (800 mg, 800 mg SF2b, fasted, read-out: Cmax, Geometric LS Means Treatment J) was 991 ng/mL, the AUC(0-t) (800 mg, 800 mg SF2b, fed, high-fat, high-calorie breakfast, read-out: AUClast, Geometric LS Means Treatment K) was 421 µg·h/mL and the AUC(0-inf) (800 mg, 800 mg SF2b, fed, high-fat, high-calorie breakfast, read-out: AUC∞, Geometric LS Means Treatment K) was 422 µg·h/mL.

From patent US20250281457A1, “TREATMENT OR PREVENTION OF DENGUE VIRAL INFECTION” (Janssen Pharmaceuticals, Inc., priority 2022, published 2025)
